{
  "source": "patent US20250382306A1",
  "about": "“HETEROCYCLIC COMPOUND AS TAAR1 LIGAND AGONIST” (SHANDONG LUYE PHARMACEUTICAL CO., LTD., priority 2022, published 2025)",
  "key": {"[1]": {"target": "T1, TAAR1 (Homo sapiens, UniProt Q96RJ0)", "T1 construct": "expressed in transfected cells; host or cells: CHO-K1 (cAMP Hunter TAAR1 Gs cell line)", "T1 sequence (Q96RJ0 1-339)": "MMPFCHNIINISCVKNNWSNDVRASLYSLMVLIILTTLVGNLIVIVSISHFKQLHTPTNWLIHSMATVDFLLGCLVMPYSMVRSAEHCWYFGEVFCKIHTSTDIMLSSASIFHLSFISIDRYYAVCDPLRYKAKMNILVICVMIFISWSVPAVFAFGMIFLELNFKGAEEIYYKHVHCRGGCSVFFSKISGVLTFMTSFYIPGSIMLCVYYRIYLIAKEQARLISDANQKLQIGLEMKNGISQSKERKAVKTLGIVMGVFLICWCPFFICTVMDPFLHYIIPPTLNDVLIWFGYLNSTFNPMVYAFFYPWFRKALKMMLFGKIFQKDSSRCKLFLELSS", "experiment": "In vitro TAAR1 functional activity (cAMP Hunter CHO-K1 TAAR1 Gs cell line, HitHunter cAMP assay)", "type": "cell-based", "conditions": "chemiluminescence cAMP readout", "method": "Test Example 1. In Vitro Evaluation of Intrasynaptic and Extrasynaptic Functional Activities in Cells\nCell: CAMP Hunter™ CHO-K1 TAAR1 Gs Cell Line\nAssay Reagent: HitHunter cAMP Assay Detection Kit\nExperimental Instrument: PerkinElmer Envision™ Chemiluminescence Signal Detector\nExperimental method: cell treatment: The cAMP Hunter cell strain was cultured at 37° C. with 5% CO2 to 70-80% confluence. The cells were harvested, and the cell density was adjusted to 1.5×10^4 cells/mL. The cells were seeded in a white-wall 384-well microwell plate at a volume of 20 μL, and incubated at 37° C. with 5% CO2 overnight. The cell medium was discarded, and 15 μL of 2:1 HBSS/10 mM Hepes:cAMP XS+Ab reagent was added to each well. The mother solution of the sample was diluted with an assay buffer in a concentration gradient to a 4× sample, and 5 μL of the 4× sample was added to each well. The plate was incubated at 37° C. or room temperature for 30 or 60 min. […] 20 μL of cAMP XS+EA reagent was added to each well, and the plate was incubated at room temperature for 3 h. The chemiluminescence signal was read using a PerkinElmer Envision™ detector.\nData analysis: EC50 was calculated using CBIS data analysis software (ChemInnovation, CA). The activity percentage was calculated using the following formula: % activity=100%×(test sample average RLU−solvent control average RLU)/(maximum control average RLU−solvent control average RLU)."}, "[2]": {"test_system": "MK801-induced overactivity", "experiment": "Pharmacodynamic study in mice, MK-801 overactivity model (Test Example 4)", "type": "in vivo", "conditions": "C57 mice, L27 hydrochloride 16 mg/kg intragastric, MK-801 0.8 mg/kg i.p., 30-60 min after administration; p<0.05 vs model group 63052.14±21618.80 mm", "method": "Test Example 4. Pharmacodynamic Study in Mice\nMouse: C57 mice weighing 20-22 g\nInstrument: electronic balance, METTLER TOLEDO; TopScan monitoring system.\n4.1. model preparation: MK-801 induces overactivity in mice and is commonly used for preclinical evaluation of antipsychotics. The modeling method in this test was: The mice were injected with MK-801 intraperitoneally in at single dose of 0.8 mg/kg.\n4.2. Experimental grouping: The mice were randomly divided into model group, 1-b group, and L27 group, 10 animals in each group, as shown in Table 5.\nThe mice were randomly divided into groups. At the start of the test, the test samples were administered intragastrically at an single dose according to the doses shown in Table 5, and the mice were placed in an activity chamber. After 30 min, each mouse was injected intraperitoneally with 0.8 mg/kg of MK-801 for modeling, and placed in the activity chamber again. The movement distance (mm) of the mice after modeling (i.e., within 30-60 min after administration) was recorded and analyzed using a TopScan monitoring system.\n[…] The total movement distance of the mice after modeling (30-60 min after administration) was recorded.\nData analysis and processing were carried out using Graphpad 5.0 software. ANOVA test was used to compare the total movement distance between each administration group and model group within 30-60 min."}, "[3]": {"experiment": "Pharmacokinetic study in rats", "type": "in vivo, SD rats", "conditions": "SD rats, after intragastric L27 9 mg/kg", "method": "Test Example 2. Pharmacokinetic Study in Rats\nRat: SD Rats Weighing 200-250 g\nReagent: acetonitrile, MERCK; methanol, MERCK; formic acid, Sigma; tolbutamide, Sigma.\nInstrument: water purification equipment, Millipore; electronic balance, METTLER TOLEDO; high-speed benchtop centrifuge, Thermno; water bath thermostatic oscillator, Shanghai Yiheng Technical Co., Ltd.; vortex oscillator, Thermno; liquid chromatography-mass spectrometry, AB SCIEX.\nMethod: The SD rats were dosed intravenously (IV) and intragastrically (IG), 3 SD rats in each group. Compounds 1-b, 2-a and L27 were separately administered, and the vehicles were DMSO and Tween 80. […] Whole blood samples were separately collected at 0, 5 m (intravenous), 15 m, 30 mi, 1 h, 2 h, 4 h, 6 h, 8 h, 12 h, and 24 h. The whole blood was placed in a heparinized EP tube and centrifuged at 13,500 rpm for 10 min to separate the plasma. After pretreatment, the plasma was analyzed by LC-MS/MS to determine the concentration of the test compound in the plasma."}, "[4]": {"conditions": "EC50, cAMP Hunter CHO-K1 TAAR1 Gs cell line"}, "[5]": {"conditions": "cAMP Hunter CHO-K1 TAAR1 Gs cell line, read-out: EC50"}},
  "note": "Like-named read-outs stand apart in the source and are kept apart here.",
  "data": [
    {"smiles": "COc1ccc([C@@H]2CNCCO2)s1", "note": "[Compound 12-a]", "values": [
      {"measurement": "EC50", "setting": "[1]; [4]", "result": "> 10", "unit": "µM"}
    ]},
    {"smiles": "COc1ccc([C@H]2CNCCO2)s1", "note": "[Compound 12-b]", "values": [
      {"measurement": "EC50", "setting": "[1]; [4]", "result": 1.59, "unit": "µM"}
    ]},
    {"smiles": "CC(C)Oc1ccsc1C1CNCCO1", "note": "(stereo not shown) [Compound 15]", "values": [
      {"measurement": "EC50", "setting": "[1]; [4]", "result": "> 10", "unit": "µM"}
    ]},
    {"smiles": "FC(F)COc1ccsc1C1CNCCO1", "note": "(stereo not shown) [Compound 19]", "values": [
      {"measurement": "EC50", "setting": "[1]; [4]", "result": "> 10", "unit": "µM"}
    ]},
    {"smiles": "FC(F)(F)COc1ccsc1C1CNCCO1", "note": "(stereo not shown) [Compound 20]", "values": [
      {"measurement": "EC50", "setting": "[1]; [5]", "result": 4.72, "unit": "µM"}
    ]},
    {"smiles": "CNCC1OC(COC)Cc2ccsc21", "note": "(stereo not shown) [Compound 30]", "values": [
      {"measurement": "EC50", "setting": "[1]; [5]", "result": "> 10", "unit": "µM"}
    ]},
    {"smiles": "CNCC1OC(C)(C)Cc2ccsc21", "note": "(stereo not shown) [Compound 34]", "values": [
      {"measurement": "EC50", "setting": "[1]; [5]", "result": 1.25, "unit": "µM"}
    ]},
    {"smiles": "CNCC1OCC(C)(C)c2ccsc21", "note": "(stereo not shown) [Compound 35]", "values": [
      {"measurement": "EC50", "setting": "[1]; [5]", "result": "> 10", "unit": "µM"}
    ]},
    {"smiles": "CNCC1OCCc2ccoc21", "note": "(stereo not shown) [Compound 37]", "values": [
      {"measurement": "EC50", "setting": "[1]; [5]", "result": 1.23, "unit": "µM"}
    ]},
    {"smiles": "CNC[C@@H]1NCCc2ccsc21", "note": "[Compound 38-a]", "values": [
      {"measurement": "EC50", "setting": "[1]; [5]", "result": "> 10", "unit": "µM"}
    ]},
    {"smiles": "CNC[C@H]1NCCc2ccsc21", "note": "[Compound 38-b]", "values": [
      {"measurement": "EC50", "setting": "[1]; [5]", "result": 7.96, "unit": "µM"}
    ]},
    {"smiles": "OC[C@H]1OCCc2ccsc21", "note": "[Compound 39-a]", "values": [
      {"measurement": "EC50", "setting": "[1]; [5]", "result": "> 10", "unit": "µM"}
    ]},
    {"smiles": "OC[C@@H]1OCCc2ccsc21", "note": "[Compound 39-b]", "values": [
      {"measurement": "EC50", "setting": "[1]; [5]", "result": "> 10", "unit": "µM"}
    ]},
    {"smiles": "CNC[C@@H]1SCCc2ccsc21", "note": "[Compound 40-a]", "values": [
      {"measurement": "EC50", "setting": "[1]; [5]", "result": "> 10", "unit": "µM"}
    ]},
    {"smiles": "CNC[C@H]1SCCc2ccsc21", "note": "[Compound 40-b]", "values": [
      {"measurement": "EC50", "setting": "[1]; [5]", "result": 0.522, "unit": "µM"}
    ]},
    {"smiles": "NC[C@@H]1NCCc2ccsc21", "note": "[Compound 41-a]", "values": [
      {"measurement": "EC50", "setting": "[1]; [5]", "result": 9.1, "unit": "µM"}
    ]},
    {"smiles": "NC[C@H]1NCCc2ccsc21", "note": "[Compound 41-b]", "values": [
      {"measurement": "EC50", "setting": "[1]; [5]", "result": 0.424, "unit": "µM"}
    ]},
    {"smiles": "c1cc(C2CC2)c(C2CNCCO2)s1", "note": "(stereo not shown) [Compound 59]", "values": [
      {"measurement": "EC50", "setting": "[1]; [5]", "result": 2.91, "unit": "µM"}
    ]},
    {"smiles": "FCCOc1ccsc1C1CNCCO1", "note": "(stereo not shown) [Compound 60]", "values": [
      {"measurement": "EC50", "setting": "[1]; [4]", "result": 9.8, "unit": "µM"}
    ]},
    {"smiles": "CNCC1c2sccc2CCN1C", "note": "(stereo not shown) [Compound 61]", "values": [
      {"measurement": "EC50", "setting": "[1]; [5]", "result": "> 10", "unit": "µM"}
    ]},
    {"smiles": "CC(OC(=O)C(C)C)OC(=O)N1CCN2CCc3ccsc3[C@@H]2C1", "note": "(stereo partly shown) [Compound L27]", "values": [
      {"measurement": "total movement distance after modeling", "setting": "[2]", "result": "8100.56±7787.37", "unit": "mm"},
      {"measurement": "Detection of L27 in plasma", "setting": "[3]", "result": "L27 was not detected"}
    ]}
  ]
}
